Consider five compounds from US20030171579A1, “Urethane derivatives” (priority 2003, published 2003).

Data set [1] deals with factor Xa, human (Homo sapiens, UniProt P00742). Nature of the data set: Inhibition of factor Xa ("Affinity to receptors"). The class given is biochemical. The text has this:
The inhibition of factor Xa by the compounds according to the invention and the measurement of the anticoagulant and antithrombotic activity can be determined by conventional in-vitro or in-vivo methods. A suitable method is described, for example, by J. Hauptmann et al. in Thrombosis and Haemostasis 1990, 63, 220-223.
The inhibition of factor Xa can be measured, for example, by the method of T. Hara et al. in Thromb. Haemostas. 1994, 71, 314-319.

The target in data set [2] is TF/VIIa (Homo sapiens, UniProt P08709). Put plainly: Inhibition of TF/VIIa ("Affinity to receptors"). Type of data set: biochemical. The text has this: The inhibition of factor VIIa by the compounds according to the invention and the measurement of the anticoagulant and antithrombotic activity can be determined by conventional in-vitro or in-vivo methods. A conventional method for the measurement of the inhibition of factor VIIa is described, for example, by H. F. Ronning et al. in Thrombosis Research 1996, 84, 73-81.

The IC50 is the concentration that inhibits the measured activity by half. Read a high IC50 as weaker potency. Broadly, the melting point is the temperature, or range, at which the solid turns liquid.

factor Xa, human, sequence (P00742 235-488 limits assumed): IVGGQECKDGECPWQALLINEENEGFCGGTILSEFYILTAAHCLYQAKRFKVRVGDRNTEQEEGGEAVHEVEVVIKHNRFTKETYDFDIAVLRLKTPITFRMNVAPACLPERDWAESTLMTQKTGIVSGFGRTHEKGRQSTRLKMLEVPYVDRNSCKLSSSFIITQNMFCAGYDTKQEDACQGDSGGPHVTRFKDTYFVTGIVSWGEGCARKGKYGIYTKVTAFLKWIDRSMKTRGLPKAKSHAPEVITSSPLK
factor Xa, human, sequence (P00742 41-179 limits assumed): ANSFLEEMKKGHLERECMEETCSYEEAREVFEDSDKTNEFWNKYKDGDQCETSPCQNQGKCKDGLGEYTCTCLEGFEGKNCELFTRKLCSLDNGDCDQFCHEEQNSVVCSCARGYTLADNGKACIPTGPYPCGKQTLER
TF/VIIa, sequence (P08709 213-466 limits assumed): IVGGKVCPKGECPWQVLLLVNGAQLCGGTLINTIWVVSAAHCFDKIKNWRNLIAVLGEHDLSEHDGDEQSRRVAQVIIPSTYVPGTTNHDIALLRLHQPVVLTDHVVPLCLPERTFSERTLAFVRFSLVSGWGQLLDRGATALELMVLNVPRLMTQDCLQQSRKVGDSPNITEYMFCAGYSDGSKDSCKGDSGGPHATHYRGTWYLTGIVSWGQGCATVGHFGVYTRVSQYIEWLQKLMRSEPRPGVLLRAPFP
TF/VIIa, sequence (P08709 61-212 limits assumed): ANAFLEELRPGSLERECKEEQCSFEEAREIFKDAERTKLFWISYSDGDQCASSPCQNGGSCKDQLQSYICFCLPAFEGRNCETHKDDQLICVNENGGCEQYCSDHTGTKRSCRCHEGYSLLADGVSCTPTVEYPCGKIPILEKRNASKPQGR
TF/VIIa, sequence (P13726 33-295 partner): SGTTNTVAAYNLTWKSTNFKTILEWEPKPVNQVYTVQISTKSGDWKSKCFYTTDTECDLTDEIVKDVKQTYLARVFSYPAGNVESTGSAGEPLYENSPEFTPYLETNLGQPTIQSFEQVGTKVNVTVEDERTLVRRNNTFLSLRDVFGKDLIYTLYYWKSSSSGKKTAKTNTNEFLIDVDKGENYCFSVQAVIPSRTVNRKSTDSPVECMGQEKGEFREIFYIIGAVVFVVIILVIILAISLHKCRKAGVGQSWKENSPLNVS

`CS(=O)(=O)c1ccccc1-c1ccc(NC(=O)N(Cc2ccccc2)Cc2cccc(C(=N)N)c2)cc1` [1-(3-amidinobenzyl)-3-(2′-methylsulfonylbiphenyl-4-yl)-1-benzylurea]: the IC50 in data set [1] came out at 80 nM; in data set [2] it was 26 nM.
Compound `CCCN(Cc1cccc(C(=N)N)c1)C(=O)Nc1ccc(-c2ccccc2S(N)(=O)=O)cc1` [Example 3.3, 1-(3-amidino-benzyl)-3-(2′-sulfamoylbiphenyl-4-yl)-1-propylurea] had a melting point of 166 to 167 °C. 140 nM corresponded to half-maximal inhibition in data set [1] (IC50). Moreover, in data set [2], half-maximal inhibition (IC50) required 80 nM.
Turning to `CCCN(Cc1cccc(C(=N)N)c1)C(=O)Nc1ccc(-c2ccccc2S(C)(=O)=O)cc1` [Example 4.3, 1-(3-amidino-benzyl)-3-(2′-methylsulfonylbiphenyl-4-yl)-1-propylurea], the IC50 in data set [1] stood at 100 nM; in data set [2], 30 nM.
In the case of `N=C(N)c1cccc(CN(C(=O)Nc2ccc(-c3ccccc3S(N)(=O)=O)cc2)c2ccccc2)c1` [Example 5.3, 1-(3-amidinobenzyl)-3-(2′-sulfamoylbiphenyl-4-yl)-1-phenylurea], the melting point lay in the range of 201 to 202 °C. The same compound returned an IC50 in data set [1] of 330 nM. Also, the IC50 in data set [2] stood at 100 nM.
As to `CS(=O)(=O)c1ccccc1-c1ccc(NC(=O)N(Cc2cccc(C(=N)N)c2)c2ccccc2)cc1` [Example 6.3, 1-(3-amidinobenzyl)-3-(2′-methylsulfonylbiphenyl-4-yl)-1-phenylurea], the IC50 in data set [1] worked out at 300 nM; in data set [2], 70 nM.
